Usually melting point stands for the temperature, or range, at which the solid turns liquid.

`c1ccc(CN2CCOc3cccc4nc5c(c2c34)CCCC5)cc1` returned a melting point of 132 to 133 °C. `CCCN(CCC)C(=O)Cn1c(-c2ccc(Cl)cc2)nc2cccnc21` showed a melting point of 156 to 157 °C. The compound `CC(C)CN(C)S(=O)(=O)c1cccc(-c2cc(-c3nc(-c4ccc(C(F)(F)F)cc4)cc(C(F)(F)F)n3)ccn2)c1` had a melting point of 144 °C. In the case of `CCOP(=O)(OCC)C(O)c1ccc(NC(=O)CCc2oc(-n3cnc4ccccc43)nc2-c2ccc(Cl)cc2)cc1` (configuration not stated) it was 171 to 172 °C.

Take `CCOC(=O)c1cc(C(O)(C(F)(F)F)C(F)(F)F)ccc1N`: the melting point lay in the range of 115 to 117 °C. With `O=C1Nc2ccc(F)cc2C1CCCCN1CCN(c2ccccn2)CC1` (configuration not stated), the melting point is 132 to 134 °C.

Compound `O=C(Cc1ccc(Cl)cc1Cl)c1ccc(Cl)cc1` gave a melting point of 119 °C. The compound `OC(CCc1ccccc1)c1cnc2sc3ccccc3n12` (configuration not stated) gave a melting point of 174 to 175 °C. For `CC(C)CCOc1cccc2oc(-c3nnn[nH]3)cc(=O)c12`, the melting point was 165 to 166 °C. `CC(=O)c1cc(C)cc(C)c1NC(=O)c1sccc1S(=O)(=O)Nc1onc(C)c1C` came in with a melting point of 158 to 160 °C. Regarding `Cc1ccc(S(=O)(=O)OC2CCCC2)cc1`, the melting point was below 30 °C. `O=C(CCc1ccc(NC2=NCCN2)cc1)c1ccc(N2CCOCC2)cc1F` displayed a melting point of 168 to 171 °C. `CCOC(=O)c1nc2sc(C(C)C)cc2c(=O)[nH]1` displayed a melting point of 182 to 183 °C. Compound `CCOc1cccc(CC(=O)O)c1OCCCc1cn(-c2ccc(C(F)(F)F)cn2)nc1C(C)C` had a melting point of 141 to 142 °C.

As to `CC1(O)c2ccccc2CC12CCC1(CC2)OCCO1` (configuration not stated), the melting point lay within 140 to 143 °C. `CCCOCCSc1ccc(-c2ccc3c(c2)C=C(C(=O)Nc2ccc(CN(C)C4CCOCC4)cc2)CCS3(=O)=O)cc1` returned a melting point of 198 to 200 °C. The compound `N=C(N)c1ccc(S(=O)(=O)NCCc2ccc(OCC(=O)O)cc2)cc1` registered a melting point of 292 to 293 °C. As for `CCCCCCn1c(=O)[nH]c2ncccc2c1=O`, the melting point lay in the range of 166 to 168 °C. `Nc1cccc(Br)c1-c1ncc[nH]1` registered a melting point of 164 to 165 °C. Take `O=S(=O)(Nc1c(Cl)cccc1Cl)c1nc2ncccn2n1`: the melting point is 278 to 280 °C.

Consider `COc1cc(C=O)cc(OC)c1F`, for which the melting point was 97 to 98 °C. In the case of `CC(C)c1ccc(-c2cc(C(=O)O)c(-c3cccc(C(=O)O)c3)o2)cc1`, the melting point was in the range of 236 to 239 °C.

The compound `ON=C1CCC(C2CCCC2)=C1c1ccc(F)cc1` gave a melting point of 204 to 205 °C.

`CCCCOc1cc(=O)n(C)c2ccccc12`: the melting point was 77 to 80 °C. In the case of `Cc1c(NC(=O)c2ccc(OCC3CCOC3)cc2)ccc2cc(CN3CCC(C)(O)CC3)cnc12` (configuration not stated), the melting point is 160 to 162 °C. Turning to `CC(CCCN(C)c1ccccc1)NCC(O)c1ccc(O)c(C(N)=O)c1` (configuration not stated), the melting point fell in the range of 155 to 157 °C. `CCOC(=O)C1=C(C)NC(CSCC2CO2)=C(C(=O)OCC)C1c1cccc([N+](=O)[O-])c1` (configuration not stated) gave a melting point of 107 to 109 °C. Consider `COc1ccc(C=C2c3ccccc3C(=NOCC(=O)N3CCC(CO[N+](=O)[O-])CC3)c3ccccc32)cc1O`, for which the melting point fell in the range of 143 to 145 °C.

Turning to `Nc1ccc(N2CCOCC2)c(C(F)(F)F)c1`, the melting point lay within 149 to 151 °C.

Consider `O=C(Nc1ccccc1)NN1CCCOC1=O`, for which the melting point was 204 to 207 °C. `CCN(C(=O)N1CCN(c2cc(C)cc(C)c2)CC1)c1cc(C)c(C)cc1OC` came in with a melting point of 80 to 82 °C. As to `CC(Cc1ccc(-c2ccc(Cl)cc2)cc1Cl)NC(=O)c1cn(C)nc1C(F)F` (configuration not stated), the melting point was 96 to 98 °C. Turning to `COC1(c2cccc(OCc3ccc(-n4ccnc4-c4ccccc4)cc3)c2)CCOCC1`, the melting point was in the range of 117 to 118 °C. In turn, `COc1cc(-c2nc(N3CCN(C(C)=O)CC3)c3c(C)c(C#N)sc3n2)cc(OC)c1OC` displayed a melting point of 211 to 213 °C. Consider `CCC(=O)c1ccc(OCc2cccc(C(F)(F)F)c2)cc1`, for which the melting point is 63 to 64 °C.

In the case of `CC(C)c1cc(C(C)C)c(C(=O)Nc2ccc(C(=O)O)cc2)[nH]1`, the melting point lay in the range of 225 to 226 °C.

`CCOC(=O)c1nc(NC)sc1-c1ccccn1` yielded a melting point of 120 to 121 °C. Consider `CC1(c2ccccc2)Cc2cc(OCC(=O)O)c(Cl)c(Cl)c2C1=O` (configuration not stated), for which the melting point lay within 168 to 169 °C.

Consider `Cc1nc(Sc2ccc(C(F)(F)F)cn2)sc1CC(=O)O`, for which the melting point fell in the range of 113 to 114 °C. Compound `N#Cc1ccc(C=CCc2ccc(C#N)cc2)cc1` gave a melting point of 98 to 105 °C.

`CCc1cc2c(s1)SCC1CC(=O)N(c3ccc(Cl)cc3)N=C21` (configuration not stated) showed a melting point of 138 to 141 °C.

`CNC(=O)C1CC(=O)N(Cc2ccccc2)C1` (configuration not stated) had a melting point of 82.5 to 83 °C.

With `Cc1sc(C(=O)NN)c(S(N)(=O)=O)c1C#N`, the melting point fell in the range of 186 to 191 °C. The compound `O=C1OCCN1CCCN1C(=O)N2C[C@@H](Cc3ccccc3)N=C2c2[nH]c(C3CCCC3)nc21` displayed a melting point of 210 to 212 °C. As to `Cn1nc(C(=O)NCc2ccc(Cl)cc2)c(=O)c2cc(C#CCO)cnc21`, the melting point lay within 201 to 206 °C. `NC(=O)c1cc(-c2c[nH]nc2-c2ccc(F)cc2)ccn1` displayed a melting point of 230 to 231 °C.

`CNc1nc(Cl)nc2c1ncn2C1OC(CO)C(O)C1O` (configuration not stated) returned a melting point of 224 to 225 °C. Consider `CC(C)(C)C(=O)Oc1ccc(C(=O)c2ccc(Cl)cc2)cc1`, for which the melting point lay within 113 to 114 °C. In the case of `COC(=O)c1ccc(COc2ccc3cc(-c4ccc(-c5ccccc5)n4Cc4ccc(C(F)(F)F)cc4)ccc3c2)c(C(=O)OC)c1` it was 172 to 174 °C.

Consider `CN(C)S(=O)(=O)C(Br)(Br)S(=O)(=O)c1ccccc1`, for which the melting point fell in the range of 144 to 145 °C. In the case of `CC(=O)Oc1ccc2c(c1)OC(C)(c1ccccc1)O2` (configuration not stated) it was 87 to 87.5 °C; in that of `Cc1nc(-c2ccc(C#N)cc2)sc1C(=O)N(CCO)[C@H](C)[C@](O)(Cn1cncn1)c1ccc(F)cc1F`, 113 to 119 °C; in that of `COc1ccc(Cn2c(C(=O)O)c(-c3ccc4c(c3)OCO4)c3cc(OCC(=O)O)ccc32)c(OCC(=O)O)c1`, 203 to 205 °C.

`CCCc1cc(=O)n2cccc(C)c2n1` showed a melting point of 59 to 60 °C. In the case of `COc1ccc(-c2cc(=O)n(CC=Cc3ccc(Cl)cc3)nc2-c2ccc(OC)c(F)c2)cc1F` it was 72.5 to 74.9 °C. Regarding `CCCn1c(=O)c2c(nc(C3CCC(=O)C3)n2Cc2ccccc2)n(CCC)c1=O` (configuration not stated), the melting point was determined as 145 °C.

The compound `O=C1Nc2cccnc2N(C(=O)NCCN2CCCCC2CNCC2CCCC2)c2ccccc21` (configuration not stated) had a melting point of 157 to 158 °C. In the case of `CC(C)(C)OC(=O)[C@@H](N)Cc1cc(I)c(O)c(I)c1` it was 165 to 168 °C; in that of `COC(=O)CCC(=O)c1ccc(O)cc1`, 115 to 116 °C; in that of `CC(Cl)C(=O)c1ccc2c(c1)CCCC(=O)N2` (configuration not stated), 230 °C. As to `Fc1ccc([C@@]2(Cn3nc[nH]c3=S)O[C@@H]2c2ccccc2C(F)(F)F)cc1F` (relative stereo), the melting point lay within 143 to 146 °C.

Take `Nc1nc(N)nc(C2(c3ccccc3)CCCCC2)n1`: the melting point lay in the range of 153 to 155 °C. In the case of `Cc1cc(C)c2c(c1)C(=O)C1(CCNCC1)CC2` it was above 260 °C; in that of `CC1=NCC2CNC(c3ccccc3F)c3cc(Cl)ccc3N12` (configuration not stated), 108 to 110 °C; in that of `Cc1ccc(-c2cncc(OC3SCC(O)C(O)C3O)c2)c(Cl)c1` (configuration not stated), 207 °C. On to `Oc1cccc2cc(-c3ccc(OCCN4CCCC4)cc3)sc12`, for which the melting point was in the range of 180 to 183 °C. Turning to `COc1cccc(C(=O)Nc2ccc3ccc(OC)nc3n2)c1`, the melting point was determined as 135 °C.

Consider `O=C1c2ccccc2COc2ccc(CCN3CCC(n4c(=O)[nH]c5ccccc54)CC3)cc21`, for which the melting point was in the range of 116 to 120 °C. For `O=c1[nH]cnc2c1-c1ccc(Cl)cc1C(c1ccccc1)=NC2`, the melting point was 226 to 229 °C. In the case of `CCc1cc2[nH]c(=O)cc(O)c2c(CC)n1` it was 322 to 325 °C; in that of `CCOc1cc2c(cc1OCC)C(C=Cc1ccc(O)c(OC)c1)=NN=C(C)C2`, 190 to 191 °C. In the case of `Cc1ccc(C(O)CN2c3nc(-c4ccncc4)cc(=O)n3CCC2c2ccccc2)cc1` (configuration not stated), the melting point lay in the range of 198 to 200 °C. In the case of `CCOC(=O)C(=Cc1cccn2c([N+](=O)[O-])c(C)nc12)N=[N+]=[N-]`, the melting point lay in the range of 196 to 198 °C. For the compound `N#Cc1nc(-c2ccc(O)cc2)cs1`, the melting point was in the range of 186 to 197 °C. For the compound `COC(=O)C(C)=CNC(=O)Nc1cc(C(=O)OC(C)C)c(Cl)cc1F`, the melting point lay within 189 to 190 °C.

With `CCc1nc2c(C)cc(C)nc2n1Cc1ccc(C(=C(Cl)c2nnn[nH]2)c2ccccc2)cc1`, the melting point was in the range of 119 to 132 °C. In the case of `O=C(O)C(=O)c1cn(Cc2ccc(F)cc2)c2ccc(-c3ccc(OC(F)(F)F)cc3)cc12` it was 158 to 159 °C.

`COc1ccc(-c2cc(CN(C)C)c(=O)n(Cc3ccc(F)c(F)c3)n2)cc1F` showed a melting point of 130 °C. With `O=P(O)(O)C(NCCCCOc1ccccc1)P(=O)(O)O`, the melting point was in the range of 206 to 208 °C. Compound `O=C(Nc1c(Cl)cncc1Cl)c1cc(OC2CCCC2)c(OC(F)F)cn1` yielded a melting point of 131 to 132 °C. In the case of `CSCCC(NC(=O)OCc1ccccc1)C(N)=O` (racemic) it was 120 to 122 °C; in that of `CCCn1nc2c(N)nc3ccccc3c2c1CCCCN1C(C)=NOC1(C)C`, 144 to 146 °C.

In turn, `Cc1ccc(NC(=O)c2ccsc2)cc1-c1nc(N(C)C)nc2c1CNC(=O)N2c1c(F)cccc1F` displayed a melting point of 214 to 215 °C. The compound `O=c1c2cccc3ncc(c(=O)n1CCCCNS(=O)(=O)CC(F)(F)F)n32` showed a melting point of 154 to 155 °C.

Consider `COC(=O)c1ccc2c(c1)C(=O)CCC2`, for which the melting point is 170 to 172 °C. With `O=C(CCc1cccnc1)Nc1cccc(-c2ccnc3c(C(=O)c4cccs4)cnn23)c1`, the melting point is above 200 °C. For the compound `COc1ccc(COc2ccc3c(c2)OC(C)(C)C3c2ccc(C(C)C)cc2)cc1` (configuration not stated), the melting point lay within 86 to 88 °C.

(Values after a melting point compilation (Tetko et al.; mined from patent text by program, amines drawn as free bases though some values may be those of a salt).)
